Measurements as given in patent publication US20080096848A1, “Substituted N-Aryl-9-Oxo-9H-Fluorene-1-Carboxamides and Analogs as Activators of Caspases and Inducers of Apoptosis” (CYTOVIA INC., priority 2004, published 2008).
Like-named read-outs stand apart in the source and are kept apart here.

Tested on: T-47D
Assay: Caspase cascade activation assay (Ac-DEVD-R110 fluorogenic substrate) in T-47D cells
Assay type: cell-based, Human
Details: 24 h incubation; for Caspase activity (Ratio): ratio of net RFU (T=3 h) of test compound to control, 0.16 to 10 μM final; for EC50: sigmoidal dose-response, read-out: Caspase potency EC50
Experimental: Human breast cancer cell lines T-47D was grown according to media component mixtures designated by American Type Culture Collection+10% FCS (Invitrogen Corporation), in a 5% CO2-95% humidity incubator at 37° C. T-47D and ZR-75-1 cells were maintained at a cell density between 30 and 80% confluency and for HL-60 at a cell density of 0.1 to 0.6×10^6 cells/mL. Cells were harvested at 600×g and resuspended at 0.65×10^6 cells/mL into appropriate media+10% FCS. An aliquot of 45 μL of cells was added to a well of a 96-well microtiter plate containing 5 μL of a 10% DMSO in RPMI-1640 media solution containing 1.6 to 100 μM of N-(2-methylphenyl)-9-oxo-9H-fluorene-1-carboxamide or other test compound (0.16 to 10 μM final). An aliquot of 45 μL of cells was added to a well of a 96-well microtiter plate containing 5 μL of a 10% DMSO in RPMI-1640 media solution without test compound as the control sample. The samples were mixed by agitation and then incubated at 37° C. for 24 h in a 5% CO2-95% humidity incubator. After incubation, the samples were removed from the incubator and 50 μL of a solution containing 20 μM of N—(Ac-DEVD)-N′-ethoxycarbonyl-R110 fluorogenic substrate (SEQ ID NO:1) (Cytovia, Inc.; U.S. Pat. No. 6,335,429), 20% sucrose (Sigma), 20 mM DTT (Sigma), 200 mM NaCl (Sigma), 40 mM Na PIPES buffer pH 7.2 (Sigma), and 500 μg/mL lysolecithin (Calbiochem) was added. The samples were mixed by agitation and incubated at room temperature. Using a fluorescent plate reader (Model 1420 Wallac Instruments), an initial reading (T=0) was made about 1-2 min after addition of the substrate solution, employing excitation at 485 nm and emission at 530 nm, to determine the background fluorescence of the control sample. After about 3 h of incubation, the samples were read for fluorescence as above (T=3 h).
The Relative Fluorescence Unit values (RFU) were used to calculate the sample readings as follows: RFU(T=3h)−Control RFU(T=0)=Net RFU(T=3h)
The activity of caspase cascade activation was determined by the ratio of the net RFU value for N-(2-methylphenyl)-9-oxo-9H-fluorene-1-carboxamide and other test compounds to that of control samples. The EC50 (nM) was determined by a sigmoidal dose-response calculation (Prism 2.0, GraphPad Software Inc.).

Compound | Caspase activity (Ratio) | EC50 (Homo sapiens, T47D, 24 h) [µM] | EC50 [µM] | EC50 (Hydrochloride) [µM]
Nc1ccccc1NC(=O)c1cccc2c1C(=O)c1ccccc1-2 [Example 26, N-(2-Amino-phenyl)-9-oxo-9H-fluorene-1-carboxamide] | 1.2 | > 10 | – | –
CC1CCCCC1NC(=O)c1cccc2c1C(=O)c1ccccc1-2 (stereo not drawn) [Example 18, N-(2-Methylcyclohexyl)-9-oxo-9H-fluorene-1-carboxamide] | 1.8 | > 10 | – | –
O=C(Nc1ccccc1-c1ccccc1)c1cccc2c1C(=O)c1ccccc1-2 [N-(2-Phenylphenyl)-9-oxo-9H-fluorene-1-carboxamide] | 8.1 | 1.5 | – | –
Cc1cccc(NC(=O)c2cccc3c2C(=O)c2ccccc2-3)c1 [N-(3-Methylphenyl)-9-oxo-9H-fluorene-1-carboxamide] | 1.3 | > 10 | – | –
Cc1ccccc1N(C)C(=O)c1cccc2c1C(=O)c1ccccc1-2 [Example 17, N-Methyl-N-(2-methylphenyl)-9-oxo-9H-fluorene-1-carboxamide] | 1.4 | > 10 | – | –
O=C(Nc1ccccc1F)c1cccc2c1C(=O)c1ccccc1-2 [N-(2-Fluorophenyl)-9-oxo-9H-fluorene-1-carboxamide] | 5.7 | 1.96 | – | –
O=C(Nc1ccccc1-n1cccn1)c1cccc2c1OCC2 [Example 19, N-(2-(1H-pyrazol-1-yl)phenyl)-2,3-dihydrobenzofuran-7-carboxamide] | 0.9 | > 10 | – | –
CCOc1ccccc1NC(=O)c1cccc2c1C(=O)c1ccccc1-2 [N-(2-Ethoxyphenyl)-9-oxo-9H-fluorene-1-carboxamide] | 8.2 | 2.07 | – | –
O=C(Nc1ccccc1)c1cccc2c1C(=O)c1ccccc1-2 [Example 6, 9-Oxo-N-phenyl-9H-fluorene-1-carboxamide] | 1.9 | > 10 | – | –
O=C(Nc1ccccc1-n1ccnc1)c1cccc2c1C(=O)c1ccccc1-2 [Example 4, N-(2-(1H-Imidazol-1-yl)-phenyl)-9-oxo-9H-fluorene-1-carboxamide] | 1.4 | > 10 | – | –
O=C(Nc1ccccc1OC(F)F)c1cccc2c1C(=O)c1ccccc1-2 [N-(2-Difluoromethoxyphenyl)-9-oxo-9H-fluorene-1-carboxamide] | 5.9 | 0.688 | – | –
Cc1ccc(NC(=O)c2cccc3c2C(=O)c2ccccc2-3)cc1 [N-(4-Methylphenyl)-9-oxo-9H-fluorene-1-carboxamide] | 1.4 | > 10 | – | –
Nc1ccc2c(c1)C(=O)c1c(C(=O)Nc3ccccc3-n3cccn3)cccc1-2 [Example 30, 7-Amino-N-(2-(1H-pyrazol-1-yl)phenyl)-9-oxo-9H-fluorene-1-carboxamide] | 4.4 | 0.881 | – | –
O=C(Nc1ccccn1)c1cccc2c1C(=O)c1ccccc1-2 [Example 5, 9-Oxo-N-(pyridin-2-yl)-9H-fluorene-1-carboxamide] | 1.2 | > 10 | – | –
O=C(Nc1ccccc1-n1cccn1)c1cccc2sc3c(c12)C(=O)CC=C3 [Example 34, 9-Oxo-N-(2-(1H-pyrazol-1-yl)phenyl)-dibenzothiophene-1-carboxamide] | 1.2 | > 10 | – | –
Cc1cccnc1NC(=O)c1cccc2c1C(=O)c1ccccc1-2 [Example 11, N-(3-Methylpyridin-2-yl)-9-Oxo-9H-fluorene-1-carboxamide] | 1.2 | > 10 | – | –
COc1ccc(NC(=O)c2cccc3c2C(=O)c2ccccc2-3)cc1 [N-(4-Methoxyphenyl)-9-oxo-9H-fluorene-1-carboxamide] | 1.8 | > 10 | – | –
COC(=O)c1ccccc1NC(=O)c1cccc2c1C(=O)c1ccccc1-2 [N-(2-(Methoxycarbonyl)phenyl)-9-oxo-9H-fluorene-1-carboxamide] | 7.1 | 0.419 | – | –

Compound | Caspase activity (Ratio) | EC50 (Homo sapiens, T47D, 24 h) [µM] | EC50 [µM] | EC50 (Hydrochloride) [µM]
O=C(Nc1ccccc1-n1cccc1)c1cccc2c1C(=O)c1ccccc1-2 [Example 2, N-(2-(1H-Pyrrolo-1-yl)-phenyl)-9-oxo-9H-fluorene-1-carboxamide] | 4.2 | – | 2.23 | –
O=C(Nc1ccccc1Cl)c1cccc2c1C(=O)c1ccccc1-2 [N-(2-Cholorophenyl)-9-oxo-9H-fluorene-1-carboxamide] | 7.4 | – | 1.05 | –
CN1CCN(Cc2ccccc2NC(=O)c2cccc3c2C(=O)c2ccccc2-3)CC1 [Example 22, N-(2-(4-Methylpiperazin-1-yl-methyl)phenyl)-9-oxo-9H-fluorene-1-carboxamide] | 1.0 | > 10 | – | –
O=C(Nc1cccc2ccccc12)c1cccc2c1C(=O)c1ccccc1-2 [N-(1-Naphthalen-1-yl)-9-oxo-9H-fluorene-1-carboxamide] | 3.2 | – | 6 | –
O=C(Nc1ccccc1O)c1cccc2c1C(=O)c1ccccc1-2 [Example 35, N-(2-Hydroxy-phenyl)-9-oxo-9H-fluorene-1-carboxamide] | 1.3 | > 10 | – | –
CN(C)Cc1ccccc1NC(=O)c1cccc2c1C(=O)c1ccccc1-2.Cl [Example 24, N-(2-Dimethylaminomethyl-phenyl)-9-oxo-9H-fluorene-1-carboxamide Hydrochloride] | 1.8 | – | – | > 10
O=C(Nc1ccccc1[N+](=O)[O-])c1cccc2c1C(=O)c1ccccc1-2 [Example 25, N-(2-Nitrophenyl)-9-oxo-9H-fluorene-1-carboxamide] | 2.2 | 2.51 | – | –
O=C(Nc1ccccc1-c1nnn[nH]1)c1cccc2c1C(=O)c1ccccc1-2 [Example 8, N-(2-(1H-tetrazol-5-yl)phenyl)-9-oxo-9H-fluorene-1-carboxamide] | 1.1 | > 10 | – | –
O=C(Nc1ccccc1-n1cccn1)c1cccc2c1-c1ccccc1S2(=O)=O [Example 33, 9,9-Dioxo-N-(2-(1H-pyrazol-1-yl)phenyl)-dibenzothiophene-1-carboxamide] | 1.6 | – | > 10 | –
O=C(Nc1ccccc1-n1cccn1)c1cccc2c3c([nH]c12)CCCC3 [Example 16, N-(2-(1H-pyrazol-1-yl)phenyl)-6,7,8,9-tetrahydro-5H-carbazole-1-carboxamide] | 0.8 | > 10 | – | –
Cc1ccncc1NC(=O)c1cccc2c1C(=O)c1ccccc1-2 [Example 21, N-(4-Methylpyridin-3-yl)-9-oxo-9H-fluorene-1-carboxamide] | 0.8 | > 10 | – | –
O=C(Nc1ccccc1-n1cccn1)c1ccc([N+](=O)[O-])c2c1C(=O)c1cc([N+](=O)[O-])ccc1-2 [Example 31, 4,7-Dinitro-N-(2-(1H-pyrazol-1-yl)phenyl)-9-oxo-9H-fluorene-1-carboxamide] | 2.3 | 6.05 | – | –
Cc1ccccc1NC(=O)c1cccc2c1C(O)c1ccccc1-2 (stereo not drawn) [Example 36, 9-Hydroxy-N-(2-methylphenyl)-9H-fluorene-1-carboxamide] | 3.3 | 3.7 | – | –
O=C(Nc1ccccc1Br)c1cccc2c1C(=O)c1ccccc1-2 [N-(2-Bromophenyl)-9-oxo-9H-fluorene-1-carboxamide] | 9.1 | 3.52 | – | –
O=C(Nc1ccccc1N1CCCCC1)c1cccc2c1C(=O)c1ccccc1-2 [Example 3, 9-Oxo-N-(2-(piperidin-1-yl)-phenyl)-9H-fluorene-1-carboxamide] | 7.4 | 1.92 | – | –
O=C(Nc1ccccc1CBr)c1cccc2c1C(=O)c1ccccc1-2 [Example 14, N-(2-Bromomethylphenyl)-9-oxo-9H-fluorene-1-carboxamide] | 5.7 | 2.88 | – | –
O=C(Nc1ccccc1-n1cccn1)c1cccc2oc3ccccc3c12 [Example 23, N-(2-(1H-pyrazol-1-yl)phenyl)-dibenzofuran-1-carboxamide] | 1.1 | > 10 | – | –
Cc1cccc(C)c1NC(=O)c1cccc2c1C(=O)c1ccccc1-2 [Example 7, N-(2,6-Dimethylphenyl)-9-oxo-9H-fluorene-1-carboxamide] | 1.4 | > 10 | – | –
